Results reported in ChEMBL document CHEMBL4665695, “Antifungal Phenols from Woodfordia uniflora Collected in Oman” (2020).
≈ marks a conversion by molar mass, not a printed value.

How the values were obtained:
Assay type in all cases: functional
Cryptococcus neoformans [1] = assay: Antifungal activity against Cryptococcus neoformans H99 by CLSI protocol-based broth serial dilution method
Candida albicans = assay: Antifungal activity against Candida albicans SC5314 by CLSI protocol-based broth serial dilution method
Cryptococcus neoformans [2] = assay: Antifungal activity against Cryptococcus neoformans JEC21 by CLSI protocol-based broth serial dilution method

SMILES: O=C(OC[C@H]1O[C@@H](Oc2c(-c3ccc(O)c(O)c3)oc3cc(O)cc(O)c3c2=O)[C@H](O)[C@@H](O)[C@@H]1O)c1cc(O)c(O)c(O)c1
- MIC (Cryptococcus neoformans [1]): 2.6 µM (≈ 1.6 µg/mL)
- MIC (Candida albicans): > 325 µM

SMILES: Oc1cc(O)c2c(c1)O[C@H](c1ccc(O)c(O)c1)[C@@H](O)[C@@H]2c1c(O)cc(O)c2c1O[C@H](c1ccc(O)c(O)c1)[C@@H](O)C2
- MIC (Cryptococcus neoformans [1]): 5.4 µM (≈ 3.12 µg/mL)
- MIC (Cryptococcus neoformans [2]): 5.4 µM (≈ 3.12 µg/mL)
- MIC (Candida albicans): > 86.5 µM

SMILES: O=C(O)c1cc(O)c(O)c(O)c1 [GALLIC ACID]
- MIC (Cryptococcus neoformans [1]): 147 µM (≈ 25 µg/mL)
- MIC (Cryptococcus neoformans [2]): 147 µM (≈ 25 µg/mL)
- MIC (Candida albicans): > 294 µM

SMILES: O=C(Oc1cc(O)c2c(c1)O[C@H](c1ccc(O)c(O)c1)[C@@H](O)C2)c1cc(O)c(O)c(O)c1
- MIC (Cryptococcus neoformans [1]): 1.8 µM (≈ 0.796 µg/mL)
- MIC (Candida albicans): 56.6 µM (≈ 25 µg/mL)

SMILES: O=C(O[C@H]1[C@H](c2c(O)cc(O)c3c2O[C@H](c2ccc(O)c(O)c2)[C@@H](O)C3)c2c(O)cc(O)cc2O[C@@H]1c1ccc(O)c(O)c1)c1cc(O)c(O)c(O)c1
- MIC (Cryptococcus neoformans [1]): 4.2 µM (≈ 3.07 µg/mL)
- MIC (Cryptococcus neoformans [2]): 8.5 µM (≈ 6.21 µg/mL)
- MIC (Candida albicans): 17.1 µM (≈ 12.5 µg/mL)

SMILES: COc1cc(O)c2c(=O)c(O[C@@H]3O[C@@H](C)[C@H](O)[C@@H](O)[C@H]3O)c(-c3ccc(O)cc3)oc2c1
- MIC (Cryptococcus neoformans [1]): 56 µM (≈ 25 µg/mL)
- MIC (Cryptococcus neoformans [2]): 56 µM (≈ 25 µg/mL)
- MIC (Candida albicans): > 112 µM

SMILES: OC(Cn1cncn1)(Cn1cncn1)c1ccc(F)cc1F [FLUCONAZOLE]
- MIC (Cryptococcus neoformans [1]): 25.5 µM (≈ 7.81 µg/mL)
- MIC (Cryptococcus neoformans [2]): 6.5 µM (≈ 1.99 µg/mL)
- MIC (Candida albicans): 1.6 µM (≈ 0.49 µg/mL)

SMILES: O=C(Oc1cc(O)c2c(c1)O[C@@H](c1ccc(O)c(O)c1)CC2)c1cc(O)c(O)c(O)c1
- MIC (Cryptococcus neoformans [1]): 1.9 µM (≈ 0.81 µg/mL)
- MIC (Cryptococcus neoformans [2]): 3.8 µM (≈ 1.62 µg/mL)
- MIC (Candida albicans): 14.8 µM (≈ 6.31 µg/mL)

SMILES: CCOC(=O)c1cc(O)c(O)c(O)c1 [ETHYLGALLATE]
- MIC (Cryptococcus neoformans [1]): 126 µM (≈ 25 µg/mL)
- MIC (Cryptococcus neoformans [2]): 252 µM (≈ 50 µg/mL)
- MIC (Candida albicans): > 252 µM

SMILES: O=C(Oc1cc(O)c2c(c1)O[C@H](c1ccc(O)c(O)c1)CC2)c1cc(O)c(O)c(O)c1
- MIC (Cryptococcus neoformans [1]): 1.9 µM (≈ 0.81 µg/mL)
- MIC (Cryptococcus neoformans [2]): 3.8 µM (≈ 1.62 µg/mL)
- MIC (Candida albicans): 14.8 µM (≈ 6.31 µg/mL)

SMILES: O=c1c(O[C@@H]2O[C@H](CO)[C@@H](O)[C@H](O)[C@H]2O)c(-c2ccc(O)c(O)c2)oc2cc(O)cc(O)c12 [ISOQUERCETIN]
- MIC (Cryptococcus neoformans [1]): 53.9 µM (≈ 25 µg/mL)
- MIC (Cryptococcus neoformans [2]): 108 µM (≈ 50 µg/mL)
- MIC (Candida albicans): > 108 µM

SMILES: C[C@]12OC(=O)C[C@H]1[C@H]1Oc3cc(O)cc(O)c3C[C@H]1O2
- MIC (Cryptococcus neoformans [1]): 180 µM (≈ 50 µg/mL)
- MIC (Cryptococcus neoformans [2]): 180 µM (≈ 50 µg/mL)
- MIC (Candida albicans): > 180 µM

SMILES: Oc1cc(O)c2c(c1)O[C@H](c1ccc(O)c(O)c1)[C@@H](O)C2 [CIANIDANOL]
- MIC (Cryptococcus neoformans [1]): 10.7 µM (≈ 3.11 µg/mL)
- MIC (Candida albicans): > 690 µM

SMILES: COc1cc(O)c2c(=O)c(O)c(-c3ccc(O[C@@H]4O[C@H](CO)[C@@H](O)[C@H](O)[C@H]4O)c(O)c3)oc2c1
- MIC (Cryptococcus neoformans [1]): 52.3 µM (≈ 25 µg/mL)
- MIC (Cryptococcus neoformans [2]): 105 µM (≈ 50 µg/mL)
- MIC (Candida albicans): > 105 µM

SMILES: COc1cc(O)c2c(=O)c(O[C@@H]3O[C@@H](C)[C@H](O)[C@@H](O)[C@H]3O)c(-c3ccc(O)c(O)c3)oc2c1
- MIC (Cryptococcus neoformans [1]): 27 µM (≈ 12.5 µg/mL)
- MIC (Candida albicans): > 433 µM

SMILES: O=C(Oc1ccc([C@H]2Oc3cc(O)cc(O)c3C[C@@H]2O)cc1O)c1cc(O)c(O)c(O)c1
- MIC (Cryptococcus neoformans [1]): 113 µM (≈ 50 µg/mL)
- MIC (Cryptococcus neoformans [2]): 113 µM (≈ 50 µg/mL)
- MIC (Candida albicans): 56.6 µM (≈ 25 µg/mL)

SMILES: COc1cc(O)c2c(=O)c(O[C@@H]3O[C@H](COC(=O)c4cc(O)c(O)c(O)c4)[C@@H](O)[C@H](O)[C@H]3O)c(-c3ccc(O)c(O)c3)oc2c1
- MIC (Cryptococcus neoformans [1]): 10 µM (≈ 6.31 µg/mL)
- MIC (Candida albicans): > 317 µM

SMILES: O=C(Oc1cc([C@H]2Oc3cc(O)cc(O)c3C[C@@H]2O)ccc1O)c1cc(O)c(O)c(O)c1
- MIC (Cryptococcus neoformans [1]): 113 µM (≈ 50 µg/mL)
- MIC (Cryptococcus neoformans [2]): 113 µM (≈ 50 µg/mL)
- MIC (Candida albicans): > 113 µM

SMILES: CC(=O)[C@@H](CC(=O)O)[C@H]1Oc2cc(O)cc(O)c2C[C@@H]1O
- MIC (Cryptococcus neoformans [1]): 169 µM (≈ 50 µg/mL)
- MIC (Cryptococcus neoformans [2]): 169 µM (≈ 50 µg/mL)
- MIC (Candida albicans): > 169 µM

SMILES: O=C(OC[C@H]1O[C@@H](Oc2c(-c3ccc(O)cc3)oc3cc(O)cc(O)c3c2=O)[C@H](O)[C@@H](O)[C@@H]1O)c1cc(O)c(O)c(O)c1
- MIC (Cryptococcus neoformans [1]): 20.8 µM (≈ 12.5 µg/mL)
- MIC (Cryptococcus neoformans [2]): 83.3 µM (≈ 50 µg/mL)
- MIC (Candida albicans): > 83.3 µM

SMILES: COc1c(O)cc(C(=O)O)cc1O
- MIC (Cryptococcus neoformans [1]): 67.9 µM (≈ 12.5 µg/mL)
- MIC (Cryptococcus neoformans [2]): 272 µM (≈ 50 µg/mL)
- MIC (Candida albicans): > 272 µM
